Among the data in ChEMBL document CHEMBL4477179, “Wewakazole B, a Cytotoxic Cyanobactin from the Cyanobacterium Moorea producens Collected in the Red Sea” (J Nat Prod, 2016) are IC50 and Activity values, retold here.

A short description of test [1]: Metal chelating activity assessed as Fe3+ complex formation measured after 45 mins by CAS assay. Format: functional.
For the next test, the system named is NCI-H460. The test is described as follows: Cytotoxicity against human NCI-H460 cells measured after 72 hrs by MTT assay. Format: functional, cell-based. Particulars: NCI-H460, 72 h.
The next test has as its system MCF7. The experiment in a line: Cytotoxicity against human MCF7 cells measured after 72 hrs by MTT assay. The following applies: MCF7, 72 h. Format: functional, cell-based.
The nature of test [2]: Metal chelating activity assessed as Fe3+ complex formation at 89 uM measured after 45 mins by CAS assay. In kind it is functional.

Calls of active or inactive are those of the source. The rule behind the calls is not given here. *1 amine or outer side, *2 acyl side, *3 side chain or, on linkers, in order; H or OH if unused. Where a SMILES comes first, the peptide text is derived from it. [ ]: non-standard residue; d: D form. X1 = Cc1oc([C@H](Cc2ccccc2)N[*:1])nc1C(=O)[*:2]; X3 = CC[C@H](C)[C@H](N[*:1])c1nc(C(=O)[*:2])co1; X2 = Cc1oc([C@H](C)N[*:1])nc1C(=O)[*:2]

Regarding `CC(=O)N(O)CCCCCNC(=O)CCC(=O)N(O)CCCCCNC(=O)CCC(=O)N(O)CCCCCN` [DEFEROXAMINE], the IC50 in test [1] amounted to 5100 nM.

On to `CC[C@H](C)[C@@H]1NC(=O)[C@@H]2CCCN2C(=O)[C@H](Cc2ccccc2)NC(=O)c2nc(oc2C)[C@H](C)NC(=O)c2nc(oc2C)[C@H](Cc2ccccc2)NC(=O)CNC(=O)[C@@H]2CCCN2C(=O)[C@@H]2CCCN2C(=O)[C@H](C)NC(=O)c2coc1n2` (cyclo(APPG[X1][X2]FP[X3])), for which the IC50 was found to be 1000 nM in the test on NCI-H460 and 580 nM in the test with MCF7. For the same compound, in test [2], the result was inactive.
